Assay results taken from US10100046B2, “Inhibitors of lysine specific demethylase-1” (Celgene Quanticel Research, Inc., priority 2014, dated 2018).

Legend:
full-length human LSD1 = full-length human LSD1 (Homo sapiens (Human), UniProt O60341); assay: In Vitro Enzyme Inhibition Assay—LSD-1 (TR-FRET); type: biochemical; conditions: H3K4me1-biotin labeled peptide
Description: This assay determines the ability of a test compound to inhibit LSD1 demethylase activity. E. coli expressed full-length human LSD1 (Accession number 060341) was purchased from Active Motif (Cat#31334).
The enzymatic assay of LSD1 activity is based on Time Resolved-Fluorescence Resonance Energy Transfer (TR-FRET) detection. The inhibitory properties of compounds to LSD1 were determined in 384-well plate format under the following reaction conditions: 0.1-0.5 nM LSD1, 50 nM H3K4me1-biotin labeled peptide (Anaspec cat #64355), 2 μM FAD in assay buffer of 50 mM HEPES, pH7.3, 10 mM NaCl, 0.005% Brij35, 0.5 mM TCEP, 0.2 mg/ml BSA. Reaction product was determined quantitatively by TR-FRET after the addition of detection reagent Phycolink Streptavidin-allophycocyanin (Prozyme) and Europium-anti-unmodified histone H3 lysine 4 (H3K4) antibody (PerkinElmer) in the presence of LSD1 inhibitor such as 1.8 mM of Tranylcypromine hydrochloride (2-PCPA) in LANCE detection buffer (PerkinElmer) to final concentration of 12.5 nM and 0.25 nM respectively.
The assay reaction was performed according to the following procedure: 2 μL of the mixture of 150 nM H3K4me1-biotin labeled peptide with 2 μL of 11-point serial diluted test compound in 3% DMSO were added to each well of plate, followed by the addition of 2 μL of 0.3 nM LSD1 and 6 μM of FAD to initiate the reaction. The reaction mixture was then incubated at room temperature for one hour, and terminated by the addition of 6 μL of 1.8 mM 2-PCPA in LANCE detection buffer containing 25 nM Phycolink Streptavidin-allophycocyanin and 0.5 nM Europium-anti-unmodified H3K4 antibody. Enzymatic reaction is terminated within 15 minutes if 0.5 LSD1 enzyme is used in the plate. Plates were read by EnVision Multilabel Reader in TR-FRET mode (excitation at 320 nm, emission at 615 nm and 665 nm) after 1 hour incubation at room temperature. A ratio was calculated (665/615) for each well and fitted to determine inhibition constant (IC50).
The ability of the compounds disclosed herein to inhibit LSD1 activity was quantified and the respective IC50 value was determined. Table 3 provides the IC50 values of various substituted heterocyclic compounds disclosed herein.

THP-1 (AML) cells = assay: LSD1 CD11b Cellular Assay (flow cytometry); type: cell-based; conditions: Homo sapiens, 96 h; CD11b expression in THP-1 cells, 4 days
Description: To analyze LSD1 inhibitor efficacy in cells, a CD11b flow cytometry assay was performed. LSD1 inhibition induces CD11b expression in THP-1 (AML) cells which can be measured by flow cytometry. […] LSD1 test compounds were serially diluted in DMSO. The dilutions were added to each well accordingly to a final concentration of 0.2% DMSO. The cells were incubated at 37 degrees Celsius in 5% CO2 for 4 days. 250 μL of each well was transferred to a well in a 96 well round bottom plate. The plate was centrifuged at 1200 rpm at 4 degrees Celsius in a Beckman Coulter Alegra 6KR centrifuge for 5 minutes. The media was removed leaving the cells at the bottom of the wells. The cells were washed in 100 μL cold HBSS (Hank's Balanced Salt Solution) plus 2% BSA (Bovine Serum Albumin) solution and centrifuged at 1200 rpm at 4 degrees Celsius for 5 minutes. The wash was removed. […] The cells were centrifuged and washed two times in 100 μl HBSS plus 2% BSA. After the final spin the cells were resuspended in 100 μL HBSS plus 2% BSA containing 1 ug/mL DAPI (4′,6-diamidino-2-phenylindole). The cells were then analyzed by flow cytometry in a BD FACSAria machine. Cells were analyzed for CD11b expression. The percent of CD11b expressing cells for each inhibitor concentration was used to determine an IC50 curve for each compound analyzed.

Row | SMILES | IC50 (full-length human LSD1) [nM] | IC50 (THP-1 (AML) cells) [nM]
1 | N#Cc1ccc(-c2nc(N3CCC4NCCC4C3)cc(=O)n2-c2ccc(C3CC3)cc2)cc1F (centres unmarked) [Example 27, 4-[4-(1,2,3,3a,4,6,7,7a-octahydropyrrolo[3,2-c]pyridin-5-yl)-1-(4-cyclopropylphenyl)-6-oxopyrimidin-2-yl]-2-fluorobenzonitrile] | ≤ 100 | < 100
2 | N#Cc1ccc(-c2nc(N3CCC4CNCC4C3)cc(=O)n2-c2ccc(C3CC3)cc2)cc1F (centres unmarked) [Example 28, 4-[4-(1,2,3,3a,4,6,7,7a-octahydropyrrolo[3,4-c]pyridin-5-yl)-1-(4-cyclopropylphenyl)-6-oxopyrimidin-2-yl]-2-fluorobenzonitrile] | ≤ 100 | < 100
3 | N#Cc1ccc(-c2nc(N3CCC4(CCNC4)CC3)cc(=O)n2-c2ccc(C3CC3)cc2)cc1F [Example 29, 4-[1-(4-cyclopropylphenyl)-4-(2,8-diazaspiro[4.5]decan-8-yl)-6-oxopyrimidin-2-yl]-2-fluorobenzonitrile] | ≤ 100 | < 100
4 | Cn1cc2cc(-c3sc(N4CCC(N)CC4)nc3-c3ccc(C#N)cc3)ccc2n1 [Example 34] | ≤ 100 | < 100

Further lines, results first:

Row | IC50 (full-length human LSD1) [nM] | IC50 (THP-1 (AML) cells) [nM] | SMILES
5 | ≤ 100 | 100 to 1000 | COc1ccc(-n2c(-c3ccc(C#N)c(F)c3)nc(N3CCC(N)CC3)cc2=O)cc1F [Example 30, 4-[4-(4-aminopiperidin-1-yl)-1-(3-fluoro-4-methoxyphenyl)-6-oxopyrimidin-2-yl]-2-fluorobenzonitrile]
6 | ≤ 100 | 100 to 1000 | Cn1cc2cc(-n3c(-c4ccc(C#N)c(F)c4)nc(N4CCC(N)CC4)cc3=O)ccc2n1 [Example 31, 4-[4-(4-aminopiperidin-1-yl)-1-(2-methylindazol-5-yl)-6-oxopyrimidin-2-yl]-2-fluorobenzonitrile]
7 | ≤ 100 | < 100 | N#Cc1ccc(-c2nc(N3CCC(N)CC3)cc(=O)n2-c2ccc(C3CC3)c(F)c2)cc1F [Example 33, 4-[4-(4-aminopiperidin-1-yl)-1-(4-cyclopropyl-3-fluorophenyl)-6-oxopyrimidin-2-yl]-2-fluorobenzonitrile]
